# Where two headings read alike, the source gives them in different places.
# Key:
# [1] = molecular target: T1, SIRT2 (Homo sapiens, UniProt Q8IXJ6); test: SPR binding to SIRT2
# T1 sequence (Q8IXJ6 1-389): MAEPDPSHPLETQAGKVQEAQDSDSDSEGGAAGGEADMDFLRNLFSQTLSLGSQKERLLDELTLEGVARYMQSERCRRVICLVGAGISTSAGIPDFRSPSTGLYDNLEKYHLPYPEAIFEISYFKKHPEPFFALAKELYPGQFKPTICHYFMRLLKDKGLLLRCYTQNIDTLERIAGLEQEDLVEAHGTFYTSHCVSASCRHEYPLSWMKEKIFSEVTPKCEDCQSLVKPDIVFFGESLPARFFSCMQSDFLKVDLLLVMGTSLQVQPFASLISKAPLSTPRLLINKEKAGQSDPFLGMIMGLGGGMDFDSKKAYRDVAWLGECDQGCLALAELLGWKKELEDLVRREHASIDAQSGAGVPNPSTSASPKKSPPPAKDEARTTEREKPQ
# Description: The affinity of SKLB-11A for SIRT1, SIRT2, SIRT3, SIRT5, and SIRT6 was determined using a Reichert 4SPR system (Reichert Technologies, Depew, NY, USA). Proteins at 200 μg/mL were immobilized on a dextran-coated sensor chip (13206066) until reaching ≥12,000 response units (RUs). A dual-flow channel setup was used, reserving one channel for blank controls. SKLB-11A was introduced at varying concentrations for binding and subsequent dissociation kinetic analysis. Data acquisition was at 25 °C utilizing a PBST running buffer (pH 7.4). The equilibrium dissociation constant (K d) was computed from steady-state affinity measurements using TraceDrawer software.
# [2] = molecular target: T2, SIRT1 (Homo sapiens, UniProt Q96EB6); test: Coupled enzymatic assay, acetylated p53-K381 substrate; format: biochemical; settings: 100 μM
# T2 sequence (Q96EB6 1-747): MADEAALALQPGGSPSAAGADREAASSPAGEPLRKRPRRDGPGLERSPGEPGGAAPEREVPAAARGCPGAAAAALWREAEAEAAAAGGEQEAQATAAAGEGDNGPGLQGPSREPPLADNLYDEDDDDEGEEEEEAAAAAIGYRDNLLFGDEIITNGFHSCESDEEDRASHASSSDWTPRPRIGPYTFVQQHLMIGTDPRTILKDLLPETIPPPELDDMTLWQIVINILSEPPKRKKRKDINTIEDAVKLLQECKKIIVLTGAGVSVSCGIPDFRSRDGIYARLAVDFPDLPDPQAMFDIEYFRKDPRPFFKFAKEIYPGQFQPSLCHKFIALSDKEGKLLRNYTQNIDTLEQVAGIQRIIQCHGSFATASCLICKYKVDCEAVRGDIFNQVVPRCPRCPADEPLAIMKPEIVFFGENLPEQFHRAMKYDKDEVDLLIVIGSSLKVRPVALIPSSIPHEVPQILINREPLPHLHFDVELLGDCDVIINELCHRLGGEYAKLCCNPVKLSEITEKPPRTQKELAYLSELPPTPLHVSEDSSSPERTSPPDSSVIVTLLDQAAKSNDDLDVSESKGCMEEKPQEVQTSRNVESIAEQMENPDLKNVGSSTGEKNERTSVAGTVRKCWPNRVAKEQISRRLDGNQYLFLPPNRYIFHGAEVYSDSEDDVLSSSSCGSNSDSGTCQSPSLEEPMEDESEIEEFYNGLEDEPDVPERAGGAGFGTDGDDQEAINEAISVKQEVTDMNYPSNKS
# From the text: Additionally, we used surface plasmon resonance (SPR) to measure the binding of SKLB-11A to immobilized SIRT3. […] We next evaluated the selectivity of SKLB-11A for different SIRT family members. […] We next examined the functional specificity of SKLB-11A using coupled enzymatic assays with isoform-specific, physiologically relevant substrates: acetylated p53-K381 for SIRT1, acetylated α-tubulin-K25 for SIRT2, acetylated MnSOD-K122 for SIRT3, and succinylated CPS1-K537 for SIRT5 (Supplementary Table S3). […] Using Schrödinger molecular docking simulations, we assessed the binding interactions of SKLB-11A with SIRT isoforms.
# [3] = test system: Dox-induced cardiotoxicity model; test: Mouse model of doxorubicin-induced cardiomyopathy; format: in vivo
# Description: For the establishment of the experimental model, male C57BL/6J mice aged 8 weeks, with an average weight of 23 g, were utilized. The mice were administered varying dosages of SKLB-11A (10 and 20 mg/kg/day) or a corresponding volume of sterile saline via oral gavage over a period of 7 days. […] The sample size for each group consisted of eight specimens. Echocardiographic assessments were conducted at three distinct time points: baseline (day 0), post-treatment (day 7), and at the conclusion of the study (day 21). The experimental timeline was terminated on day 21.
# Noninvasive transthoracic echocardiography was performed using a Vevo 3100 System with a 30-MHz transducer to assess cardiac function in mice. The procedure was conducted by an experienced technician who was blinded to the study groups. Mice were anesthetized with 1.5–2% isoflurane and underwent skin preparation. Two-dimensional guided M-mode echocardiography in the short axis view was used to measure left ventricular fractional shortening (FS) and left ventricular ejection fraction (EF).
# H&E staining was used to evaluate pathological changes in key organs. Fixed tissues were dehydrated, embedded in paraffin, and sectioned into 4 μm slices. The sections were stained with hematoxylin for 10–15 min, washed with tap water for 2 min, differentiated for 30 s using hydrochloric acid and ethanol, and then washed with warm water for 5 min. After staining with eosin for 2 min, the sections were dehydrated and mounted with resin. All procedures followed the standard operating procedure (SOP) for pathological examination.
# [4] = Pharmacokinetics in SD rats; format: in vivo, Sprague–Dawley (SD) rats; settings: for MRT inf: read-out: MRT0–∞; for half-life: read-out: T1/2z (converted)
# Description: Given the potential of SKLB-11A for treating myocardial injury, we further evaluated its pharmacokinetic profile in Sprague–Dawley (SD) rats (Supplementary Table S5). The pharmacokinetics were assessed following both intravenous injection (1 mg/kg) and intragastric administration (10 mg/kg) of SKLB-11A.
# [5] = Sprague-Dawley, rat, in vivo, iv, i.v. 1 mg/kg
# [6] = Sprague-Dawley, rat, in vivo, po, p.o. 10 mg/kg
structure (smiles),measurement,setting,value
"COC(=O)c1c(N)n(Cc2ccc(F)cc2)c2nc3ccccc3nc12 [SKLB-11A, Methyl 2-amino-1-(4-fluorobenzyl)-1H-pyrrolo[2,3-b]quinoxaline-3-carboxylate]",Kd,[1]; SPR,> 200 µM
same,affinity for SIRT2 lower than its affinity for SIRT3,[1]; SPR Kd ratio,approximately 40 times
same,effect on basal SIRT1 deacetylation activity,[2],no statistically significant effects
same,left ventricular ejection fraction (EF) and fractional shortening (FS),"[3]; 10 or 20 mg/kg, ig, pretreatment, Dox mice, dose-dependent",significantly restored
same,body weight (Dox-induced weight loss),[3]; Dox mice,partially reversed Dox-induced weight loss
same,mitochondrial respiration (basal and maximal) in heart tissues,[3]; Dox mice,restored mitochondrial respiration
same,"serum markers of myocardial injury LDH, CK-MB, BNP",[3]; Dox mice,reduced serum markers of myocardial injury
same,"myocardial structure, histology","[3]; Dox mice, H&E",preserved myocardial structure
same,"toxicity at effective doses, organ histology (heart, liver, spleen, lungs, kidneys)","[3]; mice, H&E",no apparent toxicity
same,AUC(0-inf),[4]; [5],185 ± 20 ng·h/mL
same,AUC(0-t),[4]; [5],185 ± 19.9 ng·h/mL
same,Cmax,[4]; [5],255 ± 3.42 ng/mL
same,Tmax,[4]; [5],4.8 min
same,clearance,"[4]; Sprague-Dawley, rat, in vivo, iv, i.v. 1 mg/kg, read-out: CLZ (converted)",90.7 mL/min/kg
same,MRT inf,[4]; [5],0.72 ± 0.06 h
same,half-life,[4]; [5],36 ± 3.6 min
same,Vd,"[4]; Sprague-Dawley, rat, in vivo, iv, i.v. 1 mg/kg, read-out: VZ",4.66 ± 0.2 L/kg
same,AUC(0-inf),[4]; [6],128 ± 29.2 ng·h/mL
same,AUC(0-t),[4]; [6],123 ± 23.6 ng·h/mL
same,Cmax,[4]; [6],67.9 ± 13 ng/mL
same,Tmax,[4]; [6],15 min
same,MRT inf,[4]; [6],4.44 ± 1.78 h
same,half-life,[4]; [6],326 ± 156 min
same,VZ,[4]; p.o. 10 mg/kg,39.99 ± 12.09 L/kg

# — PMC12123458, “Unraveling Small Molecule-Mediated Sirtuin 3 Activation at a Distinct Binding Site for Cardioprotective Therapies” (ACS Central Science, 2025)
